Test system: 186277-243-T-J2-PDC complex spheroid viability
Assay: Anticancer human tumor 186277-243-T-J2-PDC patient-derived colon adenocarcinoma cell line growth inhibition [POLQ]
Details: for IC50: curve of first compound; for viability, T/C: stronger effect = lower value; active = viability on the fitted dose curve at most 10% of control; inactive = the rest
In short: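 PDC + HUVEC + MSC complex spheroids; POLQ inhibitors ± partner drugs; top conc. at/near clinical Cmax, else 10 microM (SN-38 1 microM), half-log dilutions; 37 degrees C, 5% CO2.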

[1] = second compound 0.0316 µM, first compound 0.0316 µM
[2] = second compound 0.0316 µM, first compound 0.1 µM
[3] = second compound 0.0316 µM, first compound 0.316 µM
[4] = second compound 0.0316 µM, first compound 1 µM
[5] = second compound 0.0316 µM, first compound 3.16 µM
[6] = second compound 0.0316 µM, first compound 10 µM
[7] = second compound 0.1 µM, first compound 0.0316 µM
[8] = second compound 0.1 µM, first compound 0.1 µM
[9] = second compound 0.1 µM, first compound 0.316 µM
[10] = second compound 0.1 µM, first compound 1 µM
[11] = second compound 0.1 µM, first compound 3.16 µM
[12] = second compound 0.1 µM, first compound 10 µM
[13] = second compound 0.316 µM, first compound 0.0316 µM
[14] = second compound 0.316 µM, first compound 0.1 µM
[15] = second compound 0.316 µM, first compound 0.316 µM
[16] = second compound 0.316 µM, first compound 1 µM
[17] = second compound 0.316 µM, first compound 3.16 µM
[18] = second compound 0.316 µM, first compound 10 µM
[19] = second compound 1 µM, first compound 0.0316 µM
[20] = second compound 1 µM, first compound 0.1 µM
[21] = second compound 1 µM, first compound 0.316 µM
[22] = second compound 1 µM, first compound 1 µM
[23] = second compound 1 µM, first compound 3.16 µM
[24] = second compound 1 µM, first compound 10 µM
[25] = second compound 3.16 µM, first compound 0.0316 µM
[26] = second compound 3.16 µM, first compound 0.1 µM
[27] = second compound 3.16 µM, first compound 0.316 µM
[28] = second compound 3.16 µM, first compound 1 µM
[29] = second compound 3.16 µM, first compound 3.16 µM
[30] = second compound 3.16 µM, first compound 10 µM
[31] = second compound 10 µM, first compound 0.0316 µM
[32] = second compound 10 µM, first compound 0.1 µM
[33] = second compound 10 µM, first compound 0.316 µM
[34] = second compound 10 µM, first compound 1 µM
[35] = second compound 10 µM, first compound 3.16 µM
[36] = second compound 10 µM, first compound 10 µM
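Also: spheroids exposed to compounds for seven days.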
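For viability, T/C in this document: 100% = DMSO vehicle control viability.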

CC(C)n1c(=O)n(C)c2cnc3cc(F)c(-c4ccc(OCCCN5CCCCC5)nc4)cc3c21 + Nc1ccc(C#CCN(C(=O)Cc2ncc(C(F)(F)F)cc2C(F)(F)F)c2ccc(F)cc2)nn1
> 10 µM: IC50 (second compound 0.0316 µM) | IC50 (second compound 0.1 µM) | IC50 (second compound 0.316 µM) | IC50 (second compound 1 µM) | IC50 (second compound 3.16 µM) | IC50 (second compound 10 µM)
inactive: viability, T/C [1] 92.8% | viability, T/C [2] 94% | viability, T/C [3] 98.2% | viability, T/C [4] 95.6% | viability, T/C [5] 105% | viability, T/C [6] 108% | viability, T/C [7] 95.3% | viability, T/C [8] 112% | viability, T/C [9] 104% | viability, T/C [10] 102% | viability, T/C [11] 98.2% | viability, T/C [12] 105% | viability, T/C [13] 92.7% | viability, T/C [14] 90.4% | viability, T/C [15] 127% | viability, T/C [16] 102% | viability, T/C [17] 114% | viability, T/C [18] 109% | viability, T/C [19] 98.8% | viability, T/C [20] 112% | viability, T/C [21] 114% | viability, T/C [22] 99.1% | viability, T/C [23] 113% | viability, T/C [24] 113% | viability, T/C [25] 91.7% | viability, T/C [26] 98.3% | viability, T/C [27] 109% | viability, T/C [28] 102% | viability, T/C [29] 119% | viability, T/C [30] 105% | viability, T/C [31] 85.7% | viability, T/C [32] 95.4% | viability, T/C [33] 98.7% | viability, T/C [34] 91.8% | viability, T/C [35] 105% | viability, T/C [36] 102%

CNCc1ccc(-c2[nH]c3cc(F)cc4c3c2CCNC4=O)cc1 + COC1C(OC(N)=O)C(O)C(Oc2ccc3c(O)c(NC(=O)c4ccc(O)c(CC=C(C)C)c4)c(=O)oc3c2C)OC1(C)C
> 10 µM: IC50 (second compound 0.0316 µM) | IC50 (second compound 0.1 µM) | IC50 (second compound 0.316 µM) | IC50 (second compound 1 µM) | IC50 (second compound 3.16 µM) | IC50 (second compound 10 µM)
inactive: viability, T/C [1] 99% | viability, T/C [2] 96.1% | viability, T/C [3] 91% | viability, T/C [4] 85.8% | viability, T/C [5] 99.3% | viability, T/C [6] 116% | viability, T/C [7] 102% | viability, T/C [8] 96.3% | viability, T/C [9] 106% | viability, T/C [10] 105% | viability, T/C [11] 106% | viability, T/C [12] 99% | viability, T/C [13] 110% | viability, T/C [14] 99.8% | viability, T/C [15] 102% | viability, T/C [16] 93.1% | viability, T/C [17] 115% | viability, T/C [18] 115% | viability, T/C [19] 87.1% | viability, T/C [20] 107% | viability, T/C [21] 101% | viability, T/C [22] 104% | viability, T/C [23] 102% | viability, T/C [24] 101% | viability, T/C [25] 87% | viability, T/C [26] 104% | viability, T/C [27] 108% | viability, T/C [28] 99.6% | viability, T/C [29] 109% | viability, T/C [30] 112% | viability, T/C [31] 103% | viability, T/C [32] 105% | viability, T/C [33] 104% | viability, T/C [34] 93.1% | viability, T/C [35] 104% | viability, T/C [36] 112%

C#Cc1c(F)ccc2cc(O)cc(-c3ncc4c(N5CC6CCC(C5)N6)nc(OCC56CCCN5CC(F)C6)nc4c3F)c12 (stereo not given) + Nc1ccc(C#CCN(C(=O)Cc2ncc(C(F)(F)F)cc2C(F)(F)F)c2ccc(F)cc2)nn1
inactive: viability, T/C [1] 91.2% | viability, T/C [2] 96.2% | viability, T/C [3] 48.5% | viability, T/C [4] 25.6% | viability, T/C [5] 15.5% | viability, T/C [6] 10.8% | viability, T/C [7] 116% | viability, T/C [8] 93.6% | viability, T/C [9] 40.6% | viability, T/C [10] 22.1% | viability, T/C [11] 19.1% | viability, T/C [12] 10.1% | viability, T/C [13] 83.5% | viability, T/C [14] 97.2% | viability, T/C [15] 42% | viability, T/C [16] 27.4% | viability, T/C [17] 16.1% | viability, T/C [18] 10.7% | viability, T/C [19] 103% | viability, T/C [20] 91% | viability, T/C [21] 44.2% | viability, T/C [22] 22.3% | viability, T/C [23] 12.9% | viability, T/C [24] 8.94% | viability, T/C [25] 87.5% | viability, T/C [26] 70.9% | viability, T/C [27] 28.8% | viability, T/C [28] 15.3% | viability, T/C [29] 12.5% | viability, T/C [30] 8.73% | viability, T/C [31] 106% | viability, T/C [32] 55.2% | viability, T/C [33] 25% | viability, T/C [34] 15% | viability, T/C [35] 13%
0.264 µM: IC50 (second compound 0.1 µM)
0.122 µM: IC50 (second compound 10 µM)
active: viability, T/C [36] 8.18%
0.288 µM: IC50 (second compound 1 µM)
0.262 µM: IC50 (second compound 0.316 µM)
0.178 µM: IC50 (second compound 3.16 µM)
0.315 µM: IC50 (second compound 0.0316 µM)

COc1cccc2c1C(=O)c1c(O)c3c(c(O)c1C2=O)CC(O)(C(=O)CO)CC3OC1CC(N)C(O)C(C)O1 (stereo not given) + COC1C(OC(N)=O)C(O)C(Oc2ccc3c(O)c(NC(=O)c4ccc(O)c(CC=C(C)C)c4)c(=O)oc3c2C)OC1(C)C
0.0924 µM: IC50 (second compound 1 µM)
0.0921 µM: IC50 (second compound 3.16 µM)
inactive: viability, T/C [1] 89.2% | viability, T/C [2] 38.9% | viability, T/C [7] 94.1% | viability, T/C [8] 44.9% | viability, T/C [13] 90.7% | viability, T/C [14] 46.6% | viability, T/C [19] 92.1% | viability, T/C [20] 46.9% | viability, T/C [25] 88.9% | viability, T/C [26] 47% | viability, T/C [31] 95.8% | viability, T/C [32] 43.3%
0.0864 µM: IC50 (second compound 10 µM)
0.0777 µM: IC50 (second compound 0.0316 µM)
0.0887 µM: IC50 (second compound 0.1 µM)
0.0916 µM: IC50 (second compound 0.316 µM)
active: viability, T/C [3] 9.13% | viability, T/C [4] 0.32% | viability, T/C [5] 0.18% | viability, T/C [6] 0.46% | viability, T/C [9] 8.43% | viability, T/C [10] 0.24% | viability, T/C [11] 0.13% | viability, T/C [12] 0.51% | viability, T/C [15] 9.28% | viability, T/C [16] 0.18% | viability, T/C [17] 0.13% | viability, T/C [18] 0.36% | viability, T/C [21] 9.15% | viability, T/C [22] 0.2% | viability, T/C [23] 0.16% | viability, T/C [24] 0.36% | viability, T/C [27] 8.15% | viability, T/C [28] 0.24% | viability, T/C [29] 0.2% | viability, T/C [30] 0.37% | viability, T/C [33] 8.67% | viability, T/C [34] 0.31% | viability, T/C [35] 0.31% | viability, T/C [36] 0.68%

COc1cccc2c1C(=O)c1c(O)c3c(c(O)c1C2=O)CC(O)(C(=O)CO)CC3OC1CC(N)C(O)C(C)O1 (stereo not given) + Cc1cccc(N(C)C(=O)C2C(O)CCN2c2nc(C)cc(C(F)(F)F)c2C#N)c1
inactive: viability, T/C [1] 104% | viability, T/C [2] 52.1% | viability, T/C [7] 107% | viability, T/C [8] 55.6% | viability, T/C [9] 11.1% | viability, T/C [13] 96.9% | viability, T/C [14] 55.2% | viability, T/C [15] 10.3% | viability, T/C [19] 95.7% | viability, T/C [20] 57% | viability, T/C [21] 12% | viability, T/C [25] 89.3% | viability, T/C [26] 57.4% | viability, T/C [31] 76.3% | viability, T/C [32] 42.1%
0.106 µM: IC50 (second compound 0.0316 µM)
0.119 µM: IC50 (second compound 3.16 µM)
0.0766 µM: IC50 (second compound 10 µM)
active: viability, T/C [3] 10.2% | viability, T/C [4] 0.23% | viability, T/C [5] 0.15% | viability, T/C [6] 0.39% | viability, T/C [10] 0.24% | viability, T/C [11] 0.11% | viability, T/C [12] 0.45% | viability, T/C [16] 0.56% | viability, T/C [17] 0.14% | viability, T/C [18] 0.43% | viability, T/C [22] 0.45% | viability, T/C [23] 0.16% | viability, T/C [24] 0.7% | viability, T/C [27] 9.06% | viability, T/C [28] 0.16% | viability, T/C [29] 1.06% | viability, T/C [30] 0.34% | viability, T/C [33] 3.48% | viability, T/C [34] 0.3% | viability, T/C [35] 0.5% | viability, T/C [36] 0.36%
0.116 µM: IC50 (second compound 0.1 µM)
0.12 µM: IC50 (second compound 1 µM)
0.114 µM: IC50 (second compound 0.316 µM)
